In patent US10047063B2, “Method for improving the oxygen-releasing ability of hemoglobin to organs or peripheral tissues in human bodies and a medication thereof” (NATIONAL SUN YAT-SEN UNIVERSITY, priority 2014, dated 2018):

Key:
Format in all cases: biochemical
[1] = target: fetal hemoglobin (α2γ2, HbF) (Homo sapiens, UniProt P69905); assay: Resonance Raman spectroscopy: percentage of "R" state of oxygenated fetal hemoglobin treated with compounds; details: oxygen atmosphere
Text: In order to evaluate the effect of the compound of phthalides on stabilizing the oxygenated hemoglobin variants in the low oxygen affinity “T” state, compounds including 2,3-bisphosphoglycerate (group A0), Z-butylidenephthalide (group A1), Z-ligustilide (group A2), senkyunolide A (group A3), senkyunolide H (group A4) and senkyunolide I (group A5) are mixed with fetal hemoglobin (α2γ2, HbF) as a representative hemoglobin variant which is also a potential hemoglobin-based blood substitute, followed by the resonance Raman spectroscopy measurements under the oxygen atmosphere. The percentages of the high oxygen affinity “R” state of fetal hemoglobin treated with 2,3-bisphosphoglycerate (shown in FIG. 3a) and various phthalide phyto-compounds (shown in FIGS. 3b to 3f) are also analyzed from the resonance Raman spectroscopy measurements, following the same spectral analysis procedures as that of normal hemoglobin.

[2] = target: T1, hemoglobin (Homo sapiens, UniProt P68871+P69905); assay: Oxygen equilibrium curve (OEC) measurement, P50 of treated hemoglobin
T1 sequence (P69905 2-142 limits assumed): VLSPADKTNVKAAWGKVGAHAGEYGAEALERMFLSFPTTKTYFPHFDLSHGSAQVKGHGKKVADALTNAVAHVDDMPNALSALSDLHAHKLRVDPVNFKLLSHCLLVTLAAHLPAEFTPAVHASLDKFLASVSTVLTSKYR
T1 sequence (P68871 2-147 limits assumed): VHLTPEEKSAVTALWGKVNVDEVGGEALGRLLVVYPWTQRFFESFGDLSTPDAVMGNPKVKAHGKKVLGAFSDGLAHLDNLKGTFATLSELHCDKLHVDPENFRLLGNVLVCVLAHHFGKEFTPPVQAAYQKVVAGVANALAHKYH
Text: FIG. 4a is a diagram illustrating the oxygen equilibrium curve (OEC) of hemoglobin treated with 2,3-bisphosphoglycerate with a molar ratio to Hb of 1.0 (dash black curve). The OEC of pure hemoglobin (solid black curve) is also shown as the reference. The P50 value derived from the OEC for pure hemoglobin and for Hb treated with 2,3-bisphosphoglycerate are 12.6 and 16.4±1 mmHg, respectively.
To evaluate the effect of the compound of phthalides on reducing the oxygen affinity and thus promoting the oxygen release, the oxygen equilibrium curves (OEC) for hemoglobin treated with 2,3-bisphosphoglycerate (solid black curve in FIG. 4a) and Z-butylidenephthalide (Z-butylidenephthalide-to-Hb molar ratio of: 0.2, solid black curve; 0.5, dash-dot black curve; 0.8, dot black curve in FIG. 4b), are measured in comparison with that of pure hemoglobin (dash black curves in FIGS. 4a and 4b).
From the oxygen equilibrium measurements, the P50 values of hemoglobin treated compounds, including Z-butylidenephthalide, Z-ligustilide and senkyunolide A are obtained, as shown in FIGS. 5a to 5c. P50, defined as the oxygen partial pressure required for 50% of Hb to become oxygenated or deoxygenated, is a direct measure of oxygen affinity for hemoglobin, which increases with decreasing oxygen affinity.

[3] = target: T1, hemoglobin; assay: Resonance Raman spectroscopy: percentage of high oxygen affinity "R" state of oxygenated hemoglobin treated with compounds; details: varying mole ratio to Hb tetramer, 532 nm excitation, oxygen atmosphere
Text: In order to evaluate the effect of the compound of Formula I on stabilizing the oxygenated hemoglobin in the low oxygen affinity “T” state, compounds including 2,3-bisphosphoglycerate (group A0), Z-butylidenephthalide (group A1), Z-ligustilide (group A2), senkyunolide A (group A3), senkyunolide H (group A4) and senkyunolide I (group A5) are mixed with hemoglobin as a function of their mole ratio to hemoglobin, followed by the resonance Raman spectroscopy measurements at 532 nm excitation wavelength under the oxygen atmosphere. The percentages of the high oxygen affinity “R” state for hemoglobin treated with 2,3-bisphosphoglycerate (shown in FIG. 2a, as reference) and various phthalide phyto-compounds (shown in FIGS. 2b to 2f) are analyzed from the resonance Raman spectroscopy measurements. In more specific, the percentage of high oxygen affinity “R” state for each treated hemoglobin was obtained by fitting a simulated spectrum comprised of adjustable weighing factors of the T and R states of pure hemoglobin to the obtained resonance Raman spectrum of treated hemoglobin. […]

[4] = effector-to-Hb mole ratio of 0.8 (Level II), pure hemoglobin 12.6±1

Sequence of fetal hemoglobin (α2γ2, HbF) (P69905 2-142 limits assumed): as the sequence (P69905 2-142 limits assumed) above
Sequence of fetal hemoglobin (α2γ2, HbF) (P69892 2-147 partner limits assumed): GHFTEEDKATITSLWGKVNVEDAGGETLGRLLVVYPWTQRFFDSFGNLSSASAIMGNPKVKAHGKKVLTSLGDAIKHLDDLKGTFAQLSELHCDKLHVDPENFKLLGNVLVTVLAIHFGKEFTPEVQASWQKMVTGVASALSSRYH

Row | SMILES | effect on relative ratio of high oxygen affinity "R" state of fetal hemoglobin [1] | P50 of hemoglobin treated with compound [2, 4] | "R" state suppression efficiency [3] | P50 of hemoglobin treated with compound ([2]; molar ratio to Hb of 1.0, pure hemoglobin 12.6)
1 | CCC/C=C1\OC(=O)C2=C1CC[C@@H](O)[C@H]2O [senkyunolide H] | can stabilize the low oxygen affinity “T” state | – | – | –
2 | CCC/C=C1\OC(=O)C2=C1CCC=C2 [Z-ligustilide] | can stabilize the low oxygen affinity “T” state | 15.9 mmHg | – | –
3 | CCC/C=C1\OC(=O)c2ccccc21 [Z-butylidenephthalide] | can stabilize the low oxygen affinity “T” state | 17.4 mmHg | – | –
4 | CCCC[C@@H]1OC(=O)C2=C1CCC=C2 [senkyunolide A] | can stabilize the low oxygen affinity “T” state | – | – | –
5 | O=C(O)C(COP(=O)(O)O)OP(=O)(O)O (centres unmarked) [2,3-bisphosphoglycerate, reference compound] | no effect | – | about 20% | 16.4±1 mmHg
6 | CCC/C=C1\OC(=O)C2=C1CC[C@@H](O)[C@@H]2O [senkyunolide I] | can stabilize the low oxygen affinity “T” state | 15.2±1 mmHg | – | –
